From US8304454B2, “Antimicrobial cellulose sponge and method of making” (3M Innovative Properties Company, priority 2007, dated 2012)

Tests used:
[1] = Water activity of humectant solutions (AquaLab CX-2); type: physicochemical
Description: (§1) Water activity (aw) is a measure of the amount of free water available to a microorganism to support growth. Water activity expresses the active portion of the water content as opposed to the total moisture content, which includes “bound water.” The measurements were conducted using the AquaLab CX-2 by Decagon Devices, Inc. by utilizing the chilled mirror/dew point hygrometric methodology for determining water activity. The cellulose sponge was cut into a disk having a 1.5″ inch diameter and 1/16 inch thick.
A commercially available magnesium chloride hexahydrate (MgCl2.6H2O) (EMD Chemical Company, Gibbstown, N.J.), sodium chloride (NaCl) (Fisher Scientific Company, Fair Lawn, N.J.), potassium chloride (KCl) (EMD Chemical Company, Gibbstown, N.J.), and glycerol (EMD Chemical Company, Gibbstown, N.J.) was mixed to obtain a desired concentration. The solution was measured for water activity using the AquaLab CX-2 by Decagon Devices, Inc. The water activity for those solutions is presented in Table 7.

[2] = Water activity of humectants in cellulose sponges (AquaLab CX-2); type: physicochemical
Description: Water Activity (aw) in the Cellulose Sponges
as §1
A prepared cellulose sponge was soaked for 20 minutes in one of the MgCl2 or NaCl humectant solutions from Example 3. After soaking, the cellulose sponge was squeezed out between squeeze rolls and then immediately placed into airtight plastic bags. The samples were tested for water activity within 24 hours.

SMILES | Water Activity of humectant solution ([1]; solution concentration 8%) | Water Activity of humectant solution ([1]; solution concentration 10%) | Water Activity of humectant solution ([1]; solution concentration 12%) | Water Activity of humectant solution ([1]; solution concentration 16%) | Water Activity of humectant solution ([1]; solution concentration 20%) | Water Activity of humectant solution ([1]; solution concentration 14%) | Water Activity of humectant solution ([1]; solution concentration 18%) | Water Activity of humectant solution ([1]; solution concentration 22%) | Water Activity of humectant solution ([1]; solution concentration 24%) | Water Activity of humectant solution ([1]; solution concentration 50%) | Water Activity of humectant in cellulose sponge ([2]; 10 wt. % of input solution) | Water Activity of humectant in cellulose sponge ([2]; 12 wt. % of input solution) | Water Activity of humectant in cellulose sponge ([2]; 14 wt. % of input solution) | Water Activity of humectant in cellulose sponge ([2]; 16 wt. % of input solution)
O=C([O-])[O-].[K+].[K+] [Formulation K2CO3] | 0.973 | 0.960 | 0.957 | 0.943 | 0.925 |  |  |  |  |  |  |  |  | 
OCC(O)CO [Glycerol, glycerol] | 0.975 | 0.971 | 0.966 | 0.955 | 0.944 | 0.962 | 0.950 | 0.939 | 0.934 | 0.811 |  |  |  | 
[Cl-].[K+] [KCl, potassium chloride] | 0.952 | 0.950 | 0.938 | 0.915 | 0.891 | 0.928 | 0.904 | 0.875 | 0.859 |  |  |  |  | 
O.O.O.O.O.O.[Cl-].[Cl-].[Mg+2] [MgCl2, magnesium chloride hexahydrate (MgCl2.6H2O)] | 0.944 | 0.926 | 0.904 | 0.847 | 0.768 | 0.876 | 0.841 |  |  |  | 0.913 | 0.896 | 0.890 | 
[Cl-].[Na+] [NaCl, sodium chloride] | 0.949 | 0.936 | 0.919 | 0.887 | 0.842 |  |  |  |  |  | 0.926 | 0.921 | 0.900 | 0.881
